From patent US10351559B2, “Maleate salts of a B-RAF kinase inhibitor, crystalline forms, methods of preparation, and uses therefore” (BeiGene, Ltd., priority 2015, dated 2019)
Where a name gives a salt, the structure may show the parent alone. Read-outs that look alike come from different tables or passages of the source.

Tests used:
[1] = short-term stability study (1 week, 60° C. and 40° C./75% RH); type: physicochemical; details: for TRS %: sesqui-maleate salt
Protocol: Weighed about 2 mg (For XRPD: 10 mg) of each of the above salts in a 40 mL glass vial, separately. The free base form was used as control. The closed samples were capped and sealed with parafilm, while the opened samples were covered by aluminum foil with pinhole. All the samples were stored in stability chamber or dry oven at the corresponding conditions (60° C. and 40° C./75% RH) for 1 week.

[2] = Raf kinase enzymatic assay (HTRF)
[3] = pharmacokinetic comparison of sesqui-maleate and free base, oral; type: in vivo, Beagle dogs; details: dogs
Source text: Drugs and reagents: Crystalline Form A* of Compound 1 Sesqui-Maleate with particle sizes of D90=4.1 um, D10=1.5 um, D50=2.4 um after micronization. The material content (purity) was not less than 98.0%.
Experiment animals: Beagle dogs, male and female.
Pharmaceutical preparation: Weigh the appropriate amount of each substance and disperse in 0.5% sodium carboxymethyl cellulose (for the free base of Compound 1) or 0.5% methyl cellulose solution (for Compound 1 Sesqui-Maleate). Prepare a suspension at the desired concentration of Compound 1. All the doses and concentrations of Compound 1 were calculated with free base in this study.
Administration and sample collection: The dosing solutions will be freshly prepared prior to dose administration. The actual body weights and actual volume injected will be recorded accordingly. The dogs were fasted overnight and were allowed to intake food four hours after dosing. Each suspension was administrated orally to dogs at a dose ranged from 0.5 to 15 mg/kg. Blood samples (˜1.0 mL) will be collected at pre-dose and at different times up to 36 hours postdosing via cephalic vein plexus. Whole blood will be processed by centrifugation and plasma samples will be collected and kept at freezer prior to analysis. Plasma samples were processed by protein precipitation. Concentrations of Compound 1 in the plasma samples were determined using a validated liquid chromatography-tandem mass spectrometry (LC-MS/MS) method. The plasma concentration-time data were analyzed using a non-compartmental model using Pharsight WinNonlin.

[4] = system: ERK phosphorylation in HT29 cells; test: cellular phospho-ERK TR-FRET assay; type: cell-based; details: Homo sapiens, HT-29; B-RAF V600E mutant HT29 colorectal cancer cells, 1 h treatment
Protocol: (§1) A375, Sk-Mel-28, HT29, Colo205, A431, and HCC827 cell lines were purchased from American Type Culture Collection. All the cell lines used in the cellular assays were cultured in the designated medium supplemented with 10% fetal bovine serum (FBS, Thermo Scientific), 100 units/mL penicillin (Gibco), 0.1 mg/mL streptomycin (Gibco) and in a humidified 37° C. environment with 5% CO2. Cell lines were reinstated from frozen stocks laid down within three passages from the original cells purchased and passaged no more than 30 times.
(§2) Cellular phospho-ERK and phospho-EGFR were measured using a TR-FRET-based method. Cells were seeded at 3×10^4 per well of a 96-well plate and left to attach for 16 hours. Growth medium was then replaced with 100 μL of medium containing no serum. Cells were then treated with a 10-point titration of compound. After 1 h of compound treatment, 50 μL of lysis buffer (Cisbio) were added to each well. Plates were then incubated at room temperature with shaking for 30 min. A total of 16 μL of cell lysate from each well of a 96-well plate was transferred to a 384-well small volume white plate. Lysate from each well was incubated with 2 μL of Eu3+- or Tb3+-cryptate (donor) labeled anti-ERK or anti-EGFR antibody (Cisbio) and 2 μL of D2 (acceptor) labeled anti-phospho-ERK or anti-phospho-EGFR antibody (Cisbio) for 2 h at room temperature. FRET signals were measured using a PHERAstar FS reader (BMG Labtech). IC50 values for ERK or EGFR phosphorylation was determined using GraphPad Prism software.

[5] = system: ERK phosphorylation in A375 cells; test: cellular phospho-ERK TR-FRET assay; type: cell-based; details: Homo sapiens, A-375; B-RAF V600E mutant melanoma A375 cells, 1 h treatment
Protocol: as §1, §2

[6] = system: ERK phosphorylation in Sk-Mel-28 cells; test: cellular phospho-ERK TR-FRET assay; type: cell-based; details: Homo sapiens; B-RAF V600E mutant melanoma Sk-Mel-28 cells, 1 h treatment
Protocol: as §1, §2

[7] = system: ERK phosphorylation in Colo205 cells; test: cellular phospho-ERK TR-FRET assay; type: cell-based; details: Homo sapiens, COLO 205; B-RAF V600E mutant Colo205 colorectal cancer cells, 1 h treatment
Protocol: as §1, §2

[8] = pharmacokinetic study (LC-MS/MS); type: in vivo, Sprague-Dawley rats; details: rats
Source text: (§3) The fully-validated LC-MS/MS method was well used for the pharmacokinetic (PK) studies of Crystalline Form A* of Compound 1 Sesqui-Maleate in Sprague-Dawley rats and beagle dogs following single- and multiple-dose administrations.

[9] = system: EGFR phosphorylation in HCC827 cells; test: cellular phospho-EGFR TR-FRET assay; type: cell-based; details: Homo sapiens; EGFR mutant HCC827 lung cancer cells, 1 h treatment
Protocol: as §1
as §2, with “Lysate from each well was incubated with 2 μL of Eu3+- or Tb3+-cryptate (donor) labeled anti-ERK or anti-EGFR antibody (Cisbio) and 2 μL of D2 (acceptor) labeled anti-phospho-ERK or anti-phospho-EGFR antibody (Cisbio) for 2 h at room temperature.” left out

[10] = system: EGFR phosphorylation in A431 cells; test: cellular phospho-EGFR TR-FRET assay; type: cell-based; details: Homo sapiens, A-431; EGFR overexpressing A431 cells, 1 h treatment
Protocol: as §1
as §2, with “Lysate from each well was incubated with 2 μL of Eu3+- or Tb3+-cryptate (donor) labeled anti-ERK or anti-EGFR antibody (Cisbio) and 2 μL of D2 (acceptor) labeled anti-phospho-ERK or anti-phospho-EGFR antibody (Cisbio) for 2 h at room temperature.” left out

[11] = pharmacokinetic study (LC-MS/MS); type: in vivo, beagle dogs; details: dogs
Source text: as §3

[12] = oral dose 1 mg/kg (free base), listed as Sesqui-Maleate (Micronized Crystalline Form A*), sesqui-maleate salt, 1 mg/kg

Work on `O=C1CCc2c(Oc3ccc4c(c3)[C@@H]3[C@H](O4)[C@H]3c3nc4ccc(C(F)(F)F)cc4[nH]3)ccnc2N1` [5-(((1R,1aS,6bR)-1-(6-(trifluoromethyl)-1H-benzo[d]imidazol-2-yl)-1a,6b-dihydro-1H-cyclopropa[b]benzofuran-5-yl)oxy)-3,4-dihydro-1,8-naphthyridin-2(1H)-one sesqui-maleate salt] yielded a TRS % ([1]; 0 day) of 0.08%, a TRS % ([1]; 40° C./75% RH, 1 week) of 0.10% and a TRS % ([1]; 60° C., 1 week) of 0.17%. The “chemical degradation” value ([1]; after one week at 60° C. and 40° C./75% RH) was “did not show degradations”, the “appearance by visual observation” value ([1]; both conditions after 1 week) was “no change” and the IC50 ([2]; BRAF V600E (416-766), ATP at KM) was 26 nM. The “enzyme inhibition” value ([2]; V600E mutant B-RAF) was “potent and reversible inhibitor”, the Cmax ([3]; both sexes, beagle, dog, plasma, po, 0.5 mg/kg, oral dose 0.5 mg/kg, read-out: Cmax) was 342 ng/mL and the Cmax ([3]; both sexes, beagle, dog, plasma, po, 1.5 mg/kg, oral dose 1.5 mg/kg, read-out: Cmax) was 861 ng/mL. For the same molecule, the Cmax ([3]; both sexes, beagle, dog, plasma, po, 4.5 mg/kg, oral dose 4.5 mg/kg, read-out: Cmax) was 2880 ng/mL, the Cmax ([3]; both sexes, beagle, dog, plasma, po, 15 mg/kg, oral dose 15 mg/kg, read-out: Cmax) was 5310 ng/mL and the “AUC0-inf relative to the free base form” value ([3]; oral) was 2-3 times. The “Cmax relative to the free base form” value ([3]; oral) was 2-3 times, the “Dose-Normalized AUC0-inf” value ([3]; oral dose 0.5 mg/kg) was 4178 ng·kg·h/mL/mg and the Cmax [3, 12] was 607 ng/mL. For the same molecule, the “Dose-Normalized AUC0-inf” value [3, 12] was 2960 ng·kg·h/mL/mg, the “Dose-Normalized AUC0-inf” value ([3]; oral dose 1.5 mg/kg) was 3726 ng·kg·h/mL/mg and the “Dose-Normalized AUC0-inf” value ([3]; oral dose 4.5 mg/kg) was 4390 ng·kg·h/mL/mg. For the same molecule, the “Dose-Normalized AUC0-inf” value ([3]; oral dose 15 mg/kg) was 2841 ng·kg·h/mL/mg, the IC50 [4] was 103 nM and the IC50 [5] was 32 nM. For the same molecule, the IC50 [6] was 77 nM, the IC50 [7] was 53 nM and the bioavailability ([8]; Sprague-Dawley, rat, in vivo, po) was 51 to 102%. The half-life ([8]; Sprague-Dawley, rat, in vivo, after oral administration, read-out: elimination half-life) was 264 to 564 min, the “accumulation after multiple dosing” value [8] was ~2 fold and the “kinetics over dose range” value ([8]; 0.5 to 15 mg/kg) was “linear”. For the same molecule, the IC50 [9] was 161 nM, the IC50 [10] was 385 nM and the bioavailability ([11]; beagle, dog, in vivo, po) was 41 to 82%. The half-life ([11]; beagle, dog, in vivo, after oral administration, read-out: elimination half-life) was 198 to 294 min, the “accumulation after multiple dosing” value [11] was “No accumulation” and the “kinetics over dose range” value ([11]; 1.5 to 15 mg/kg) was “linear”.
